Measured values as given in PMC10307805, “DprE2 is a molecular target of the anti-tubercular nitroimidazole compounds pretomanid and delamanid” (Nature Communications, 2023).

Legend:
Type in all cases: biochemical
[1] = target: T1, DprE2 (decaprenylphosphoryl-2-keto-β-D-erythro-pentose reductase) (Mycobacterium tuberculosis, UniProt P9WGS9)
[2] = target: T2, Ddn (deazaflavin F420-dependent nitroreductase) (Mycobacterium tuberculosis, UniProt P9WP15)
T2 construct: recombinant Ddn, SUMO tag removed
T2 sequence (P9WP15 whole entry): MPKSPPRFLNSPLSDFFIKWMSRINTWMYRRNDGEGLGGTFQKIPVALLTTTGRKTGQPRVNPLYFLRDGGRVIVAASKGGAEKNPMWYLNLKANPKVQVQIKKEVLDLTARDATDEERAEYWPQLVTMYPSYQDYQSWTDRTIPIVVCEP

[3] = target: DprE1 (decaprenylphosphoryl-β-D-ribose oxidase) (Mycobacterium tuberculosis, UniProt P9WJF1); assay: resazurin reduction fluorescence assay with GGPR (also […] on Mt-DprE1-DprE2 complex)
DprE1 (decaprenylphosphoryl-β-D-ribose oxidase), sequence (P9WJF1 whole entry): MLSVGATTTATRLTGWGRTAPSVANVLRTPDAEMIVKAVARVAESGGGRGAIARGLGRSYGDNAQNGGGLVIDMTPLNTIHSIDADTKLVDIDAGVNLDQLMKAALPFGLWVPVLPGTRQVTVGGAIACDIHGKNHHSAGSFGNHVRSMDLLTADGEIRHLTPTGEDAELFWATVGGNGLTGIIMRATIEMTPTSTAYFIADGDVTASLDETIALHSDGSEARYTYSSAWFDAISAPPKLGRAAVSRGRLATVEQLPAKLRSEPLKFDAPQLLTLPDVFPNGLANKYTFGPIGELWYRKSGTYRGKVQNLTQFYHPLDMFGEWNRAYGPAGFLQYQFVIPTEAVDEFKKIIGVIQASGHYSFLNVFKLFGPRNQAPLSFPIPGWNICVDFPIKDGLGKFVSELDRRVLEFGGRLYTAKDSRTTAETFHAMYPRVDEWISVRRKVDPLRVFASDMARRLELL

[4] = target: T1, DprE2 (decaprenylphosphoryl-2-keto-β-D-erythro-pentose reductase); assay: […]; also IC50 […] and radiolabeled DPR epimerization TLC

T1 sequence (P9WGS9 whole entry, looked up): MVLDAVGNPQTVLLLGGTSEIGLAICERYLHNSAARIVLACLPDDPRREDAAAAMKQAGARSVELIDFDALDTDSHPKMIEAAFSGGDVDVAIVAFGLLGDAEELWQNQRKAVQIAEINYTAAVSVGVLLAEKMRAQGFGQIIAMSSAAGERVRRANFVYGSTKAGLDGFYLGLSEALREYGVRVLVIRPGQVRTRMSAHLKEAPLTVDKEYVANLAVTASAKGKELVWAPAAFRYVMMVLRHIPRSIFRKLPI

NC(=O)C1=CN([C@@H]2O[C@H](COP(=O)(O)OP(=O)(O)OC[C@H]3O[C@@H](n4cnc5c(N)ncnc54)[C@H](OP(=O)(O)O)[C@@H]3O)[C@@H](O)[C@H]2O)C=CC1 [NADPH]
NADPH oxidation fluorescence assay with NADPH titration [1]: DprE2 activity was monitored through a change in fluorescence due to the oxidation of the DprE2 cofactor, NADPH

O=[N+]([O-])c1cn2c(n1)OC[C@@H](OCc1ccc(OC(F)(F)F)cc1)C2 [pretomanid]
pro-drug activation by purified Ddn with Fgd1/F420, read out by DprE2 inhibition [2]: upon activation of the pretomanid by Ddn, there was a dose-dependent reduction in Mt-DprE2 activity

BTZ
IC50 [3]: 11.8 ± 0.7 µM

Ddn-activated pretomanid
Ki [4]: 1.5 ± 0.4 µM
